Results: patent publication US8435519B2, “Antibodies that bind alpha subunit of sodium potassium ATPase” (priority 2005, dated 2013)

Tests used:
D-R region of NKA = molecular target: T1, D-R region of NKA (Rattus norvegicus, UniProt P06685); test: Immunofluorescent staining of rat cardiac myocytes; type: binding; conditions: ouabain 5, 10 and 20 mM
T1 construct: endogenous in cells; host or cells: isolated rat cardiac myocytes, frozen sections
Protocol: With both ouabain and SSA412: FIG. 5E: a group of cells with 5 mM ouabain at a magnification of 400×, FIG. 5F: a single cell with 5 mM ouabain at 1200×, FIG. 5G: cells with 10 mM ouabain, FIG. 5H: cells with 20 mM ouabain.
Isolated rat heart cells were incubated in 1 ml cold lysis buffer containing 150 mM NaCl, 10 mM EDTA, 1% NP-40, 1 mM Na3VO4, and 1× protease inhibitor cocktail as described, with or without antibody. Immunoprecipitates were boiled for 5 min and loaded on a 7% SDS gel, and transferred from the SDS gel to a nitrocellulose membrane. The nitrocellulose membrane was blocked with 5% nonfat milk for 1 hour and incubated with SSA412 or other control antibodies overnight at 4° C. Alkaline phosphatase conjugated secondary antibody (1:2500) was then incubated with the membrane for 1 hour and washed 3 times with TBS in 0.05% Tween-20. Color was developed using a reagent containing a mixture of NBT and BCIP (Promega Corporation, WI). For immunofluorescent staining, rat myocytes were frozen and cut on a cryostat. Sections (8 μm) of each tissue were blocked with 1% bovine serum albumin (BSA) and incubated with SSA412 (1:100) for 60 min in the presence or absence of 5, 10, and 20 mM ouabain. Washed slides were evaluated after incubation with a FITC conjugated goat anti-rabbit antibody (1:75).

[1] = tested on: α- and β-adrenergic receptors in isolated rat myocytes; test: Effect of α- and β-adrenergic receptor inhibitors on cell contraction; type: cell-based; conditions: 1 μM isoproterenol, inhibitors 7 μM each
Protocol: Cell contractions were measured in the presence or absence of SSA412 (0.5 μM) with or without inhibitors. Black circles: with 1 μM isoproterenol. Open circles: with 1 μM isoproterenol+ both prazosin and propennol (7 μM each). Black triangles: with SSA412 in the presence of both prazosin and propennol (7 μM each). Data are presented as percent of control (n=8 cells for each group).
(§1) Myocytes were placed on an inverted microscope (Zeiss model IM-35), superfused with HEPES-buffered solution at a flow rate of 1.8 ml/min, and electrically stimulated at 0.5 Hz at 23° C. Cell length was monitored from the bright-field image (650 nm to 750 nm red light illumination) by an optical edge-tracking method using a photodiode array (model 1024 SAQ, Reticon) with a 3-ms time resolution. Contraction amplitude was measured as the percentage of shortening of cell length.

[2] = tested on: isolated rat cardiac myocytes; test: Intracellular Ca2+ transients and cell contraction; type: cell-based; conditions: SSA412 + 0.5 mM peptide blocker
Protocol: Ventricular cardiac myocytes were isolated from adult Sprague-Dawley rats (2-3 months old, weight 225-300 g) using standard enzymatic technique as described previously.^1 Briefly, following anaesthesia (sodium pentobarbital, 100 mg/kg), the heart was quickly removed from the chest and aortic perfused at constant pressure at 37° C. for 3 min with a Ca^2+-free bicarbonate-based buffer containing 120 mM NaCL, 5.4 mM MgSO4, 1.2 mM NaH2PO4, 5.6 mM glucose, 20 mM NaHCO3, and 5 mM taurine, in the presence of O2 (95%)/CO2 (5%). Enzymatic digestion was initiated by adding collagenase (Worthington Type II, 1 mg/ml) to the perfusion solution. Calcium (50 μM) was added to the enzyme solution when the heart became swollen. About 7 min later, the left ventricle was quickly removed, cut into several pieces, and further digested on a shaker (60-70 rpm) for 10 min in the same enzyme solution. […]
as §1, with “length. […]” for “length.”

[3] = molecular target: T2, purified ouabain-sensitive dog NKA (Canis lupus familiaris, UniProt P50997); test: NKA catalytic activity (ATPase assay, Kyte's method), purified dog NKA; type: biochemical; conditions: FIG. 7, antibody + peptide blocker
T2 construct: 30 μg of purified dog kidney NKA; from tissue; host or cells: dog kidney
Protocol: A first series of experiments were conducted testing whether antibody SSA412, binding to the D-R region of the alpha 1-subunit, affects NKA activity. NKA activity was determined based on Jack Kyte's method as previously described [17, which is hereby incorporated by reference as if set forth fully herein]. […] FIG. 2A and FIG. 2B show the time course of activation of purified rat (FIG. 2A: 0.125 mg/ml, ouabain-resistant) or dog (FIG. 2B: 0.125 mg/ml, ouabain-sensitive) NKA incubated with SSA412 (0.5 and 1.0 μM) or with 1.0 μM normal rabbit total IgG at 4° C. or at room temperature (FIG. 2C and FIG. 2D). The control is indicated by closed circles, […] SSA412 by open circles, […] SSA412 by closed triangles and […] rabbit IgG by open triangles.
NKA activity was determined based on Jack Kyte's method as previously described under various experimental conditions as indicated in FIG. 2. All NKA activities in different experiments are ouabain-sensitive activity. Purified ouabain-resistant rat NKA and ouabain-sensitive dog NKA were used to verify the data. Enzymes were incubated with or without SSA412 for 60 min at room temperature. The reaction was initiated by adding different concentrations of MgATP in a final volume of 0.25 ml at 37° C. for 30 min and terminated by adding 0.75 ml quench solution and 0.025 ml developer. Color was developed for 30 minutes at room temperature and the concentration of phosphate was then determined at 700 nm using a spectrophotometer. NKA turnover number (kcat) was calculated using the equation kcat=Vmax/Et, where Vmax is the maximal velocity (rate of reaction) and Et represents enzyme concentration.

For C[C@@H]1O[C@@H](O[C@H]2C[C@@H](O)[C@]3(CO)[C@H]4[C@H](O)C[C@]5(C)[C@@H](C6=CC(=O)OC6)CC[C@]5(O)[C@@H]4CC[C@]3(O)C2)[C@H](O)[C@H](O)[C@H]1O [Ouabain, ouabain], the “competition with SSA412 binding to the D-R region of NKA” value (D-R region of NKA) was “does not compete”.

For COc1cc2nc(N3CCN(C(=O)c4ccco4)CC3)nc(N)c2cc1OC [prazosin], the “effect of inhibitor on action of the agonist isoproterenol” value [1] was “eliminated”.

CC(C)NCC(O)COc1cccc2ccccc12 (stereo not shown) [propennol] was tested, and the “effect of inhibitor on action of the agonist isoproterenol” value [1] was “eliminated”.

“DVEDSYGQQWTYEQR (Activation site of the (Na+K)-ATPase)” was tested, and the “SSA412-induced increase in calcium and contraction in presence of peptide blocker” value [2] was “blocked”.

In the case of “KRQPRNPKTDKLVNE (Activation site of the (Na+K)-ATPase) [PB95]”, the “antibody-induced increase in NKA in presence of respective peptide blocker” value (“antibody-induced increase in NKA” for short) [3] was “blocked”.

With “RSATEEEPPNDD (Activation site of the (Na+K)-ATPase) [PB78]” the “antibody-induced increase in NKA” value [3] was “blocked”.

With “VPAISLAYEQAESD (VPASLAYEQAESD; Activation site of the (Na+K)-ATPase) [PB97]” the “antibody-induced increase in NKA” value [3] was “blocked”.
